pIC50: −log10 of the molar value. Where a SMILES comes first, the peptide text is derived from it. Bridges are numbered along the chain shown (N, C = ends). Where no end group is shown, it is not given here.
Legend:
rat PAC1 receptor = molecular target: T1, rat PAC1 receptor (Rattus norvegicus, UniProt P32215); assay: LANCE Ultra cAMP accumulation antagonist assay in RG-2 cells; format: cell-based;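 further: RG-2 rat glioma cells endogenously expressing PAC1, test peptide preincubated 30 min, then PAC1 agonist added at its EC80 for 15 min, cAMP accumulation read by LANCE Ultra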
T1 construct: SHSY-5Y (human neuroblastoma cell line) and RG-2 (rat glioma cell line) cells endogenously express human and rat PAC1 receptors, respectively; endogenous in cells; host or cells: RG-2 rat glioma cells
T1 sequence (P32215 20-523): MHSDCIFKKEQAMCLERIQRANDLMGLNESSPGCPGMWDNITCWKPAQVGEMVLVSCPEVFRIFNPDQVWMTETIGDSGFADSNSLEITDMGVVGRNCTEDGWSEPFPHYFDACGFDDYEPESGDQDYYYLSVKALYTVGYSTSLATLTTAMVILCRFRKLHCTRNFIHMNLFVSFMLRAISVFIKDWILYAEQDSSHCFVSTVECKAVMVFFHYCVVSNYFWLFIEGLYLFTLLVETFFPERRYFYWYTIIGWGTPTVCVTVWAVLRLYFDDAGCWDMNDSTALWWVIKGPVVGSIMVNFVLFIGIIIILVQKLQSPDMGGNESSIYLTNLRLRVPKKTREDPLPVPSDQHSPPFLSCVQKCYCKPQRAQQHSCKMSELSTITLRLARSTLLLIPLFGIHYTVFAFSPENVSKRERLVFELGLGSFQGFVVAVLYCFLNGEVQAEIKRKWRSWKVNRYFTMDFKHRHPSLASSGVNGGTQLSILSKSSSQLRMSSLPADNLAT

human PAC1 receptor = molecular target: T2, human PAC1 receptor (Homo sapiens, UniProt P41586); assay: LANCE Ultra cAMP accumulation antagonist assay in SHSY-5Y cells; format: cell-based;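 further: inhibition of cAMP accumulation evoked by PAC1 agonist at its EC80 in SHSY-5Y cells endogenously expressing receptor, 30 min preincubation then 15 min agonist, TR-FRET readout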
T2 construct: SHSY-5Y (human neuroblastoma cell line) and RG-2 (rat glioma cell line) cells endogenously express human and rat PAC1 receptors, respectively; endogenous in cells; host or cells: SHSY-5Y human neuroblastoma cells
T2 sequence (P41586 21-468): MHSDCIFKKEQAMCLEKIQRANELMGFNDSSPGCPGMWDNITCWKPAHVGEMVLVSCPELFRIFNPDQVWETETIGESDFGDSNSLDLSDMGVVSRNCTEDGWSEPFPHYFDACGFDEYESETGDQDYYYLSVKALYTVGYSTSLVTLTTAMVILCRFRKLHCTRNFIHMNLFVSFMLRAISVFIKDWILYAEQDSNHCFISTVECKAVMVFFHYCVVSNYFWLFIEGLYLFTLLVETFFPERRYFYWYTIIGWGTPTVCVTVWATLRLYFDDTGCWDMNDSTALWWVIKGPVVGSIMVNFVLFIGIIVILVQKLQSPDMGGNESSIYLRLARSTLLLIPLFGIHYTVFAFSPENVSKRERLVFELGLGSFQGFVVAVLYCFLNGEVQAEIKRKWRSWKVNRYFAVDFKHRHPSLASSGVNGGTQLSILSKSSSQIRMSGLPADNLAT

| Molecule | pIC50 (rat PAC1 receptor) | pIC50 (human PAC1 receptor) |
| --- | --- | --- |
| CC[C@H](C)[C@H](NC(=O)[C@H](C)NC(=O)[C@H](CCCCN)NC(=O)[C@H](CCCNC(=N)N)NC(=O)[C@H](Cc1ccccc1)NC(=O)[C@H](CCC(N)=O)NC(=O)[C@@H]1CSSC[C@H](N)C(=O)N[C@@H](CC(=O)O)C(=O)N[C@@H](C)C(=O)N[C@@H]([C@@H](C)O)C(=O)N1)C(=O)N[C@@H](CC(=O)O)C(=O)N[C@@H](CC(=O)O)C(=O)N[C@H]1CSSC[C@@H](C(=O)N[C@@H](CCSC)C(=O)N[C@@H](CCCCN)C(=O)N[C@@H](CCC(N)=O)C(=O)N[C@@H](CCCCN)C(=O)N[C@@H](CCCCN)C(=O)N[C@@H](CCCCN)C(=O)N[C@@H](CCC(=O)O)C(=O)N[C@@H](Cc2ccccc2)C(=O)N[C@@H](CCCCN)C(N)=O)NC(=O)[C@H](CCC(=O)O)NC(=O)[C@H](CCCCN)NC(=O)[C@H](Cc2ccccc2)NC(=O)[C@H](CO)NC(=O)[C@H](CC(N)=O)NC(=O)[C@H](CO)NC(=O)[C@H](Cc2c[nH]cn2)NC(=O)[C@H](Cc2c[nH]cn2)NC(=O)[C@H](C)NC(=O)[C@H](CCC(N)=O)NC(=O)[C@H](CCCCN)NC(=O)[C@H](CCC(N)=O)NC1=O [compound 224] (H-CDATCQFRKAIDDCQKQAHHSNSFKECMKQKKKEFK-NH2; disulfide 1-5, 14-27) | 7.00 to 9.00 | 9.00 to 11.00 |
| CC[C@H](C)[C@H](NC(=O)[C@H](C)NC(=O)[C@H](CCCCN)NC(=O)[C@H](CCCNC(=N)N)NC(=O)[C@H](Cc1ccccc1)NC(=O)[C@H](CCC(N)=O)NC(=O)[C@@H]1CSSC[C@H](N)C(=O)N[C@@H](CC(=O)O)C(=O)N[C@@H](C)C(=O)N[C@@H]([C@@H](C)O)C(=O)N1)C(=O)N[C@@H](CC(=O)O)C(=O)N[C@@H](CC(=O)O)C(=O)N[C@H]1CSSC[C@@H](C(=O)N[C@@H](CCSC)C(=O)N[C@@H](CCCCN)C(=O)N[C@@H](CCC(N)=O)C(=O)N[C@@H](CCCCN)C(=O)N[C@@H](CCCCN)C(=O)N[C@@H](CCCCN)C(=O)N[C@@H](CCC(=O)O)C(=O)N[C@@H](Cc2c[nH]c3ccccc23)C(=O)N[C@@H](CCCCN)C(=O)N[C@@H](C)C(=O)NCC(=O)N[C@@H](Cc2c[nH]cn2)C(=O)O)NC(=O)[C@H](C)NC(=O)[C@H](CCCCN)NC(=O)[C@H](Cc2ccccc2)NC(=O)[C@H](C(C)C)NC(=O)[C@H](CO)NC(=O)[C@H](CO)NC(=O)[C@H](Cc2c[nH]cn2)NC(=O)[C@H](Cc2c[nH]cn2)NC(=O)[C@H](C)NC(=O)[C@H](CCC(N)=O)NC(=O)[C@H](CCCCN)NC(=O)[C@H](C)NC1=O [compound 26] (H-CDATCQFRKAIDDCAKQAHHSSVFKACMKQKKKEWKAGH-OH; disulfide 1-5, 14-27) | 9.00 to 11.00 | 9.00 to 11.00 |
| CDATCQFRKAIDDCQKQAHHSNVPGSVFKACMKFRRFLWKAG-NH2 (disulfide 1-5, 14-31) [compound 128] | 9.00 to 11.00 | 9.00 to 11.00 |
| CDATCQFRKAIDDCVYSAWHSNVPGSVFKACMKQKKKEFKAG-NH2 (disulfide 1-5, 14-31) [compound 83] | 9.00 to 11.00 | 9.00 to 11.00 |
| CDATCQFRKAIDECARQAHHSNVPGSVFKACMKQKKKEWKAGH (disulfide 1-5, 14-31) [compound 25] | > 11.00 | 9.00 to 11.00 |
| CDATCQFRKAIDDCAWFAMHSNVPGSVFKACMKQKKKEFKAG-NH2 (disulfide 1-5, 14-31) [compound 90] | 9.00 to 11.00 | 9.00 to 11.00 |
| CDATCQFRKAIDDCQKQAHHSNVPGSVFKACMKQKKKEFKAGHHHHHH (disulfide 1-5, 14-31) [compound 160] | 9.00 to 11.00 | 7.00 to 9.00 |
| CDATCFFRKVIDDCYYRSWHSNVPGSVFKACMKQLKKRWQAG-NH2 (disulfide 1-5, 14-31) [compound 70] | 7.00 to 9.00 | 7.00 to 9.00 |
| CDATCQFRKAIDDCQKQAHHSNVPGSVFKTCMKQKKKEFKAG-NH2 (disulfide 1-5, 14-31) [compound 146] | 9.00 to 11.00 | 9.00 to 11.00 |
| CC[C@H](C)[C@H](NC(=O)[C@H](C)NC(=O)[C@H](CCCCN)NC(=O)[C@H](CCCNC(=N)N)NC(=O)[C@H](Cc1ccccc1)NC(=O)[C@H](CCC(N)=O)NC(=O)[C@@H]1CSSC[C@H](N)C(=O)N[C@@H](CC(=O)O)C(=O)N[C@@H](C)C(=O)N[C@@H]([C@@H](C)O)C(=O)N1)C(=O)N[C@@H](CC(=O)O)C(=O)N[C@@H](CC(=O)O)C(=O)N[C@H]1CSSC[C@@H](C(=O)N[C@@H](CCSC)C(=O)N[C@@H](CCCCN)C(=O)N[C@@H](CCC(N)=O)C(=O)N[C@@H](CCCCN)C(=O)N[C@@H](CCCCN)C(=O)N[C@@H](CCCCN)C(=O)N[C@@H](CCC(=O)O)C(=O)N[C@@H](Cc2c[nH]c3ccccc23)C(=O)N[C@@H](CCCCN)C(=O)N[C@@H](C)C(=O)NCC(=O)N[C@@H](Cc2ccc(O)cc2)C(=O)O)NC(=O)[C@H](C)NC(=O)[C@H](CCCCN)NC(=O)[C@H](Cc2ccccc2)NC(=O)[C@H](C(C)C)NC(=O)[C@H](CO)NC(=O)[C@H](CO)NC(=O)[C@H](Cc2c[nH]cn2)NC(=O)[C@H](Cc2c[nH]cn2)NC(=O)[C@H](C)NC(=O)[C@H](CCC(N)=O)NC(=O)[C@H](CCCNC(=N)N)NC(=O)[C@H](C(C)C)NC1=O [compound 3] (H-CDATCQFRKAIDDCVRQAHHSSVFKACMKQKKKEWKAGY-OH; disulfide 1-5, 14-27) | 9.00 to 11.00 | 9.00 to 11.00 |
| CDATCQFRKAIDDCYWQAIHANVPGSVWKACMKQKKKEFKAG-NH2 (disulfide 1-5, 14-31) [compound 138] | 9.00 to 11.00 | 9.00 to 11.00 |
| CDATCQFRKAIDDCWIVAWHANVPGSVFKACMKQKKKEFKAG-NH2 (disulfide 1-5, 14-31) [compound 129] | 9.00 to 11.00 | 9.00 to 11.00 |
| CDATCQFRKAIDDCARQAHHSNVPGSVFKACMKQKKKEYKAGH (disulfide 1-5, 14-31) [compound 10] | 9.00 to 11.00 | 9.00 to 11.00 |
| CDATCQFRKAIDDCQKQAHHSNVPGSVFKACMVQKKKEFKAG-NH2 (disulfide 1-5, 14-31) [compound 102] | 9.00 to 11.00 | 7.00 to 9.00 |
| CDATCQFRKAIDDCARQAHHSNVPGSVFKLCMKQKKKEWKAGH (disulfide 1-5, 14-31) [compound 23] | > 11.00 | 9.00 to 11.00 |
| CC[C@H](C)[C@H](NC(=O)[C@H](C)NC(=O)[C@H](CCCCN)NC(=O)[C@H](CCCNC(=N)N)NC(=O)[C@H](Cc1ccccc1)NC(=O)[C@H](CCC(N)=O)NC(=O)[C@@H]1CSSC[C@H](N)C(=O)N[C@@H](CC(=O)O)C(=O)N[C@@H](C)C(=O)N[C@@H]([C@@H](C)O)C(=O)N1)C(=O)N[C@@H](CC(=O)O)C(=O)N[C@@H](CC(=O)O)C(=O)N[C@H]1CSSC[C@@H](C(=O)N[C@@H](CCSC)C(=O)N[C@@H](CCCCN)C(=O)N[C@@H](CCC(N)=O)C(=O)N[C@@H](CCCCN)C(=O)N[C@@H](CCCCN)C(=O)N[C@@H](CCCCN)C(=O)N[C@@H](CCC(=O)O)C(=O)N[C@@H](Cc2ccccc2)C(=O)N[C@@H](CCCCN)C(N)=O)NC(=O)[C@H](CCC(=O)O)NC(=O)[C@H](CCCCN)NC(=O)[C@H](Cc2ccccc2)NC(=O)[C@H](C(C)C)NC(=O)[C@H](CO)NC(=O)CNC(=O)[C@@H]2CCCN2C(=O)[C@H](C(C)C)NC(=O)[C@H](CC(N)=O)NC(=O)[C@H](CO)NC(=O)[C@H](Cc2c[nH]cn2)NC(=O)[C@H](Cc2c[nH]cn2)NC(=O)[C@H](C)NC(=O)[C@H](CCC(N)=O)NC(=O)[C@H](CCCCN)NC(=O)[C@H](CCC(N)=O)NC1=O [compound 293] | 9.00 to 11.00 | 7.00 to 9.00 |

Reference: patent publication US20210395313A1, “PEPTIDE PAC1 ANTAGONISTS” (AMGEN INC., priority 2017, published 2021)
